These results are taken from PubChem BioAssay AID463199 (Broad Institute, 2010).

Molecules are shown by their SMILES. Active and inactive are the calls of the source.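 The calls were made as follows: active = AC50, the dose giving half-maximal effect, exceeds a fixed cutoff for a compound that rescues yeast growth under heat; inactive = the rest, inconclusive results apart.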

This assay has as its system S. cerevisiae Burl-1 ts mutant growth, BacTiter-Glo, 38.5C 24 h. Put plainly: growth induction of Burl-1 ts yeast mutant, dose response, counter-screen for SUMOylation pathway inhibitor project, whole organism, S. cerevisiae, luminescence (AID 463199). Background: The purpose of a counterscreen is to sort out artefacts and off-target activity.
A word on the AC50: it is the midpoint of the concentration-response curve, whichever way the signal moves. As for `CCOc1ccccc1N(C(=O)c1snc(C(N)=O)c1N)C(CC)C(=O)NC1CCCC1` (stereo unspecified), the AC50 is > 42 µM (inactive). To `COc1ccc(NC2=C(C)C(=O)CC2)cc1` belongs > 42 µM (inactive); to `CN(C)S(=O)(=O)c1ccc(Cl)c(NC(=O)CN2C(=O)NC(C)(C3CC3)C2=O)c1` (stereo unspecified), > 42 µM (inactive); to `CSc1ccc(CN2CCN(S(=O)(=O)Cc3ccccc3)CC2)cc1`, > 42 µM (inactive). As for `CCOC(=O)CCN(c1ccccc1)S(=O)(=O)c1ccc(-c2ccc(=O)[nH]n2)s1`, the AC50 is > 42 µM (inactive). To `COc1ccc(N=C2SC(C(=O)O)CC(=O)N2Cc2ccc(OC)c(OC)c2)cc1` (stereo unspecified) belongs > 42 µM (inactive); to `COC/C=C/C1=CC2=CC(=O)C(C)(OC(=O)c3cnc4ccccc4n3)C(=O)C2=CN1CCOC` (stereo unspecified), > 42 µM (inactive); to `COc1ccc2c(c1)c(CC(=O)OCC(N)=O)c(C)n2C(=O)c1ccc(Cl)cc1`, > 42 µM (inactive). The figure for `O=C1CCCC2=C1C(c1ccncc1)c1c(nc(SCc3ccccc3Cl)[nH]c1=O)N2` (stereo unspecified) is > 42 µM (inactive); for `C=C(C)Cn1c(N)cc(=O)nc1SCC(=O)Nc1cccc(C(F)(F)F)c1` it is > 42 µM (inactive). Regarding `CC(C)C(=O)NCCSc1c[nH]c2ccccc12`, the AC50 was > 42 µM (inactive).

On to `Cc1cccc(OCc2nnc(SCC(=O)O)n2-c2ccccc2)c1`, for which the AC50 is > 42 µM (inactive). Take `NC(=S)N/N=C/c1cccc(O)c1O`: the AC50 is > 42 µM (inactive). To `COc1ccc(C(=O)N2CCN(c3ccc(NC(=O)c4cccnc4)cc3)CC2)cc1` belongs > 42 µM (inactive).

With `CC(=O)Nc1ccc(-c2csc(NC(=O)C3CC(=O)N(c4ccc5c(c4)OCCO5)C3)n2)cc1` (stereo unspecified), the AC50 was > 42 µM (inactive). Regarding `O=C(O)CSc1ncnc2sc(-c3ccccc3)cc12`, the AC50 was > 42 µM (inactive).

Turning to `CCCCOCCCNS(=O)(=O)Cc1ccccc1`, the AC50 is > 42 µM (inactive). To `CC(C)[C@H](NC(=O)C1(c2ccccc2)CCN(C(=O)OC(C)(C)C)CC1)C(=O)O` belongs > 42 µM (inactive); to `O=S(=O)(Nc1ccc(-c2nc3cccnc3s2)cc1)c1cc(F)ccc1F`, > 42 µM (inactive).

Take `CC(C)C1OC2(C)OC(=N)C1(C#N)C(C#N)(C#N)C2c1ccccc1` (stereo unspecified): the AC50 is > 42 µM (inactive).

Regarding `CCOc1c(P(=S)(N(C)C)N(C)C)c(C)nn1-c1ccccc1`, the AC50 was > 42 µM (inactive). The figure for `Nc1cccc2c1C(=O)N(c1ccccc1)C2=O` is > 42 µM (inactive). To `COc1ccc(CN2CCNC(=O)C2CC(=O)NCc2cn3ccc(C)cc3n2)c(OC)c1` (stereo unspecified) belongs > 42 µM (inactive). To `COc1cccc(OC)c1C(=O)Nc1ccc2c(c1)n(C)c(=O)n2C` belongs > 42 µM (inactive). In the case of `CCCOc1ccc(C(=O)NCc2ccco2)cc1`, the AC50 was > 42 µM (inactive). The figure for `O=c1cc(-c2ccccc2)nc(N2CCN(Cc3ccccc3)CC2)[nH]1` is > 42 µM (inactive); for `O=C(NCc1nc(-c2ccccc2)no1)c1cccs1` it is > 42 µM (inactive). The figure for `O=C(CCNC(=O)c1ccccc1)Nc1cccnc1` is > 42 µM (inactive). The figure for `CCCCn1c(N)c(N(CC(C)C)C(=O)c2cc(-c3ccc(F)cc3)nc3ccccc23)c(=O)[nH]c1=O` is > 42 µM (inactive); for `CN1C(=O)c2ccc(NC(=S)NC(=O)C(C)(C)C)cc2C1=O` it is > 42 µM (inactive); for `CCCCN(C)C(=O)CCC(=O)Nc1ccc2nc(N3CCN(C)CC3)cc(C)c2c1` it is > 42 µM (inactive).

Regarding `CC1CN(S(=O)(=O)c2cccc(C(=O)N=c3sccn3C)c2)CC(C)O1` (stereo unspecified), the AC50 is > 42 µM (inactive).

For the compound `COc1ccc(-c2[nH]nc3c2C(c2ccncc2)C(C#N)=C(N)O3)cc1` (stereo unspecified), the AC50 was > 42 µM (inactive). To `O=C(C1CCC(CNc2c(N3CCCCC3)c(=O)c2=O)CC1)N1CCN(C2CCCCC2)CC1` (stereo unspecified) belongs > 42 µM (inactive); to `COc1ccc(NC(=O)CN(C)C(=O)/C=C/c2cn(-c3ccccc3)nc2-c2ccc(F)cc2)cc1`, > 42 µM (inactive); to `OC1(c2ccc(F)cc2)CC2CCC(C1)N2Cc1nnnn1C1CCCCC1` (stereo unspecified), > 42 µM (inactive). `Cc1cc(C)cc(OC(=O)CS(=O)c2ccc(C(F)(F)F)cc2[N+](=O)[O-])c1` (stereo unspecified): the AC50 is > 42 µM (inactive).

`C=CC[N+]1(CC#Cc2ccccc2)CCCC1`: the AC50 is > 42 µM (inactive). To `CCOC(=O)C1=C(N)c2ccccc2CC1C1CCCC1` (stereo unspecified) belongs > 42 µM (inactive). The figure for `CC(=O)N1CC(=O)Nc2ccc(Cl)cc2C1c1ccccc1` (stereo unspecified) is > 42 µM (inactive). The figure for `Cc1ccc(S(=O)(=O)N2CCN(C(=O)CSc3nc(N)cc(=O)[nH]3)CC2)c(C)c1` is > 42 µM (inactive).

Take `Cc1ccc(C(=O)N/C(=C/c2ccccc2)C(=O)NCC2CCCO2)cc1` (stereo unspecified): the AC50 was > 21 µM (inactive).

`CC(C)NC(=O)COc1ccc(S(=O)(=O)N(C)Cc2ccccc2)cc1`: the AC50 is > 42 µM (inactive). With `Cc1ccc(N/C=C(\C#N)c2ccc(OCCCF)cc2)cc1`, the AC50 is > 42 µM (inactive).

On to `COc1ccccc1NS(=O)(=O)c1cc(Cl)ccc1OC`, for which the AC50 was > 42 µM (inactive).

Consider `CCOc1ccc2nc(CN3CCN(Cc4ccccc4OCC)C(CCO)C3)ccc2c1` (stereo unspecified), for which the AC50 is > 42 µM (inactive). The figure for `CSc1ccc(CCNC(=O)C2CCCN(S(=O)(=O)N3CCOCC3)C2)cc1` (stereo unspecified) is > 42 µM (inactive). For `CCC1C(c2ccccc2)NC(c2ccccc2)CC1(O)c1ccc(F)cc1` (stereo unspecified), the AC50 was > 42 µM (inactive). On to `Cc1cccc(OCCN2CSC(=S)N(C)C2)c1`, for which the AC50 is 31.6 µM. To `COc1ccc(NC(=O)CN(c2ccc(C(C)C)cc2)S(=O)(=O)c2c(C)noc2C)cc1OC` belongs > 42 µM (inactive); to `O=C(COc1ccc(F)cc1Cl)N(Cc1nnc(-c2ccccc2Cl)o1)C1CC1`, > 42 µM (inactive). To `COC(=O)c1[nH]c2cc(C)ccc2c1NC(=O)CN1CCN(c2ccccc2OC)CC1` belongs > 21 µM (inactive).

In the case of `COc1ccc(S(=O)(=O)N2CCN(c3ccc(F)cc3)CC2)cc1C(=O)N1CCOCC1`, the AC50 is > 42 µM (inactive).

In the case of `Fc1ccc(-c2n[nH]c(=S)n2CC2CCCO2)cc1` (stereo unspecified), the AC50 was > 42 µM (inactive). The figure for `CCn1c(SCC(=O)N/N=C/c2ccccc2OCC(=O)O)nnc1-c1ccc(C(C)(C)C)cc1` is > 42 µM (inactive); for `COc1ccc(C(=O)CC(=O)C(=O)Nc2ccc(C)c(C)c2)cc1` it is > 42 µM (inactive); for `COc1cccc(S(=O)(=O)Nc2cccc(C(=O)N3CCOCC3)c2)c1` it is > 42 µM (inactive).

`CC(=O)NC1CCCN(O)C(=O)/C=C(\C)CCOC(=O)C(NC(C)=O)CCCN(O)C(=O)/C=C(\C)CCOC(=O)C(NC(C)=O)CCCN(O)C(=O)/C=C(\C)CCOC1=O` (stereo unspecified): the AC50 is > 42 µM (inactive). To `COc1ccc(NC(=O)CCCc2ccccc2)cc1OC` belongs 9.43 µM; to `OC(COc1ccccc1)Cn1c2ccccc2c2ccccc21` (stereo unspecified), > 42 µM (inactive); to `C/C(=N/OCO/N=C(\C)c1ccccc1)c1ccccc1`, > 42 µM (inactive). As to `CC(=O)OCC(OC(C)=O)C(OC(C)=O)C(OC(C)=O)C(=O)Nc1ccccc1` (stereo unspecified), the AC50 was > 42 µM (inactive).

Regarding `COc1cc(/C=C2\NC(=S)N(C)C2=O)ccc1OCc1cccc(F)c1`, the AC50 was > 42 µM (inactive). For `CCOC(=O)Cn1c(=O)n(Cc2ccco2)c(=O)c2ccc(C(=O)NCCc3ccccc3)cc21`, the AC50 is > 42 µM (inactive). The figure for `COc1cc(NC(=S)N2CCN(C(=O)C3CCCO3)CC2)c(OC)cc1Cl` (stereo unspecified) is > 42 µM (inactive).

Turning to `CC(NC(=O)C12CC3CC(CC(O)(C3)C1)C2)c1ccccc1` (stereo unspecified), the AC50 is > 42 µM (inactive).

As to `COc1cccc2[nH]c(=O)c(-c3ccccc3)cc12`, the AC50 was > 42 µM (inactive). With `N#Cc1cc([N+](=O)[O-])cnc1NCC(O)CO` (stereo unspecified), the AC50 is > 42 µM (inactive). The figure for `O=C1c2cccc3c(N4CCCCC4)ccc(c23)C(=O)N1CCO` is > 42 µM (inactive).

Regarding `NC(=O)NC(=O)COC(=O)/C=C/c1cccs1`, the AC50 is > 42 µM (inactive).

In the case of `Cc1cccc(OCc2nnc(SCC(=O)N3c4ccccc4CC3C)n2C)c1C` (stereo unspecified), the AC50 was > 42 µM (inactive). The figure for `CN1CCN(CC(=O)N2c3ccccc3C(=O)Nc3cccnc32)CC1` is > 42 µM (inactive); for `Cc1ccc(N(C(=O)Cn2nnc3ccccc32)C(C(=O)NC2CCCCC2)c2cn(C)nc2C)cc1` (stereo unspecified) it is > 21 µM (inactive). The figure for `C=CCNC(=O)c1onc(CSc2cccc(C)c2)c1C(=O)O` is > 42 µM (inactive); for `Cc1ccc(CN(C)C(=O)c2ccc3c(c2)NC(=O)CS3)o1` it is > 42 µM (inactive). With `C/C(=C\C(=O)N1CCc2ccccc21)C(=O)O`, the AC50 is > 42 µM (inactive). The figure for `COC(=O)C12CCC3(SCCS3)C(C(=O)OC)(CCC13SCCS3)C2` is > 42 µM (inactive); for `COc1ccccc1-c1sc2ccccc2c1-c1ccc2c(c1)OCO2` it is > 42 µM (inactive); for `O=S1(=O)CC(N2CCCCC2)C(N2CCCCC2)C1` (stereo unspecified) it is > 42 µM (inactive).

Regarding `Cc1cc(C)cc(OCC(=O)Nc2ccc(N3CCN(C(=O)c4ccco4)CC3)cc2)c1`, the AC50 is > 42 µM (inactive).

On to `Cc1ccc(NC(=O)CSCC(=O)Nc2ccccc2N2CCCC2)cc1`, for which the AC50 is > 42 µM (inactive). The figure for `Cc1ccc(S(=O)(=O)Nc2n[nH]nc2C(=O)NC2CCCCC2)cc1` is > 42 µM (inactive). For `CC(C(=O)N1CCN(C(=O)c2ccco2)CC1)n1sc2ccccc2c1=O` (stereo unspecified), the AC50 was > 42 µM (inactive). The figure for `COc1ccccc1-n1c(O)c(/C=C2\C=Nc3ccccc32)c(=O)[nH]c1=O` is > 42 µM (inactive). To `COc1ccc(NC(=O)CC(C)C)c(OC)c1` belongs > 42 µM (inactive). The figure for `Cc1cc(C)n(C(=O)CNC(=O)c2ccc3c(c2)OCCO3)n1` is > 42 µM (inactive).
